Test results from ChEMBL document CHEMBL4373724, “An overview of recent progress in siderophore-antibiotic conjugates” (2019).
In brackets after ≈: the same amount, converted by molar mass.

How the values were obtained:
Format in all cases: functional
[1] = tested on: Pseudomonas aeruginosa; assay: Antimicrobial activity against Pseudomonas aeruginosa under iron-sufficient condition by CLSI protocol based broth microdilution method
[2] = tested on: Pseudomonas aeruginosa; assay: Antimicrobial activity against Pseudomonas aeruginosa under iron-deficient condition by CLSI protocol based broth microdilution method
[3] = tested on: Pseudomonas aeruginosa; assay: Antimicrobial activity against Pseudomonas aeruginosa KW799 under iron-sufficient condition by CLSI protocol based broth microdilution method
[4] = tested on: Pseudomonas aeruginosa; assay: Antimicrobial activity against Pseudomonas aeruginosa KW799 under iron-deficient condition by CLSI protocol based broth microdilution method
[5] = tested on: Pseudomonas aeruginosa; assay: Antimicrobial activity against Pseudomonas aeruginosa 61 under iron-sufficient condition by CLSI protocol based broth microdilution method
[6] = tested on: Pseudomonas aeruginosa; assay: Antimicrobial activity against Pseudomonas aeruginosa 61 under iron-deficient condition by CLSI protocol based broth microdilution method
[7] = tested on: Pseudomonas aeruginosa; assay: Antimicrobial activity against Pseudomonas aeruginosa PAO1 under iron-sufficient condition by CLSI protocol based broth microdilution method
[8] = tested on: Pseudomonas aeruginosa; assay: Antimicrobial activity against Pseudomonas aeruginosa PAO1 under iron-deficient condition by CLSI protocol based broth microdilution method
[9] = tested on: Pseudomonas aeruginosa; assay: Antimicrobial activity against Pseudomonas aeruginosa PA4 under iron-sufficient condition by CLSI protocol based broth microdilution method
[10] = tested on: Pseudomonas aeruginosa; assay: Antimicrobial activity against Pseudomonas aeruginosa PA4 under iron-deficient condition by CLSI protocol based broth microdilution method
[11] = tested on: Pseudomonas aeruginosa; assay: Antimicrobial activity against Pseudomonas aeruginosa PA6 under iron-sufficient condition by CLSI protocol based broth microdilution method
[12] = tested on: Pseudomonas aeruginosa; assay: Antimicrobial activity against Pseudomonas aeruginosa PA6 under iron-deficient condition by CLSI protocol based broth microdilution method
[13] = tested on: Escherichia coli; assay: Antimicrobial activity against Escherichia coli ATCC 25922 under iron-sufficient condition by CLSI protocol based broth microdilution method
[14] = tested on: Escherichia coli; assay: Antimicrobial activity against Escherichia coli ATCC 25922 under iron-deficient condition by CLSI protocol based broth microdilution method
[15] = tested on: Klebsiella pneumoniae; assay: Antimicrobial activity against Klebsiella pneumoniae ATCC 8303 under iron-sufficient condition by CLSI protocol based broth microdilution method
[16] = tested on: Klebsiella pneumoniae; assay: Antimicrobial activity against Klebsiella pneumoniae X68 under iron-sufficient condition by CLSI protocol based broth microdilution method
[17] = tested on: Klebsiella pneumoniae; assay: Antimicrobial activity against Klebsiella pneumoniae ATCC 8303 under iron-deficient condition by CLSI protocol based broth microdilution method
[18] = tested on: Klebsiella pneumoniae; assay: Antimicrobial activity against Klebsiella pneumoniae X68 under iron-deficient condition by CLSI protocol based broth microdilution method
[19] = tested on: Enterococcus faecium; assay: Antimicrobial activity against Enterococcus faecium NCTC after 18 hrs by CLSI protocol based broth microdilution method
[20] = tested on: Staphylococcus aureus; assay: Antimicrobial activity against Staphylococcus aureus SG 511 after 18 hrs by CLSI protocol based broth microdilution method; conditions: SG 511, 18 h
[21] = tested on: Klebsiella pneumoniae; assay: Antimicrobial activity against Klebsiella pneumoniae 700603 after 18 hrs by CLSI protocol based broth microdilution method; conditions: Klebsiella pneumoniae, 700603, 18 h
[22] = tested on: Acinetobacter baumannii; assay: Antimicrobial activity against Acinetobacter baumannii ATCC 17961 after 18 hrs by CLSI protocol based broth microdilution method; conditions: ATCC 17961, 18 h
[23] = tested on: Pseudomonas aeruginosa; assay: Antimicrobial activity against Pseudomonas aeruginosa ATCC 27853 after 18 hrs by CLSI protocol based broth microdilution method; conditions: ATCC 27853, 18 h
[24] = tested on: Klebsiella aerogenes; assay: Antimicrobial activity against Enterobacter aerogenes ATCC 35029 after 18 hrs by CLSI protocol based broth microdilution method; conditions: ATCC 35029, 18 h
[25] = tested on: Escherichia coli; assay: Antimicrobial activity against Escherichia coli ATCC 25922 after 18 hrs by CLSI protocol based broth microdilution method; conditions: ATCC 25922, 18 h
[26] = tested on: Mycobacterium tuberculosis; assay: Antitubercular activity against Mycobacterium tuberculosis H37Rv
[27] = tested on: Mycolicibacterium smegmatis; assay: Antitubercular activity against Mycobacterium smegmatis
[28] = tested on: Escherichia coli; assay: Antimicrobial activity against Escherichia coli X580 under iron-sufficient condition by broth microdilution method
[29] = tested on: Escherichia coli; assay: Antimicrobial activity against Escherichia coli X580 under iron-deficient condition by broth microdilution method
[30] = tested on: Escherichia coli; assay: Antimicrobial activity against Escherichia coli EC14 under iron-sufficient condition by broth microdilution method
[31] = tested on: Escherichia coli; assay: Antimicrobial activity against Escherichia coli EC14 under iron-deficient condition by broth microdilution method
[32] = tested on: Pseudomonas aeruginosa; assay: Antimicrobial activity against Pseudomonas aeruginosa X620 under iron-sufficient condition by broth microdilution method
[33] = tested on: Pseudomonas aeruginosa; assay: Antimicrobial activity against Pseudomonas aeruginosa X620 under iron-deficient condition by broth microdilution method
[34] = tested on: Pseudomonas aeruginosa; assay: Antimicrobial activity against Pseudomonas aeruginosa X621 under iron-sufficient condition by broth microdilution method
[35] = tested on: Pseudomonas aeruginosa; assay: Antimicrobial activity against Pseudomonas aeruginosa X621 under iron-deficient condition by broth microdilution method
[36] = tested on: Staphylococcus aureus; assay: Antimicrobial activity against Staphylococcus aureus X1.1 under iron-sufficient condition by broth microdilution method
[37] = tested on: Staphylococcus aureus; assay: Antimicrobial activity against Staphylococcus aureus X1.1 under iron-deficient condition by broth microdilution method
[38] = tested on: Micrococcus luteus; assay: Antimicrobial activity against Micrococcus luteus under iron-sufficient condition by broth microdilution method
[39] = tested on: Micrococcus luteus; assay: Antimicrobial activity against Micrococcus luteus under iron-deficient condition by broth microdilution method

| Structure (SMILES) | MIC90 [1] [µM] | MIC90 [2] [µM] | MIC90 [3] [µM] | MIC90 [4] [µM] | MIC90 [5] [µM] | MIC90 [6] [µM] | MIC90 [7] [µM] | MIC90 [8] [µM] | MIC90 [9] [µM] | MIC90 [10] [µM] | MIC90 [11] [µM] | MIC90 [12] [µM] | MIC90 [13] [µM] | MIC90 [14] [µM] | MIC90 [15] [µM] | MIC90 [16] [µM] | MIC90 [17] [µM] | MIC90 [18] [µM] | other results |
| --- | --- | --- | --- | --- | --- | --- | --- | --- | --- | --- | --- | --- | --- | --- | --- | --- | --- | --- | --- |
| CC1(C)S[C@@H]2[C@H](NC(=O)[C@H](NC(=O)CCC(=O)NC(CCCNC(=O)c3cccc(O)c3O)(CCCNC(=O)c3cccc(O)c3O)CCCNC(=O)c3cccc(O)c3O)c3ccccc3)C(=O)N2[C@H]1C(=O)O | 33 (≈ 34.4 µg/mL) | 0.05 (≈ 0.0521 µg/mL) | 12.5 to 33 (≈ 13 to 34.4 µg/mL) | 0.05 to 0.067 (≈ 0.0521 to 0.0698 µg/mL) | 12.5 (≈ 13 µg/mL) | 0.067 (≈ 0.0698 µg/mL) | 50 (≈ 52.1 µg/mL) | 0.39 (≈ 0.406 µg/mL) | 25 (≈ 26.1 µg/mL) | 0.39 (≈ 0.406 µg/mL) | > 200 | > 200 | 150 (≈ 156 µg/mL) | 1.56 (≈ 1.63 µg/mL) | > 200 | > 200 | > 100 | > 100 | – |
| O=C(CCC(=O)N(O)CCCCCO)NCCCCCN(O)C(=O)CCC(=O)NCCCCCN(O)C(=O)CCC(=O)N1CCN(c2cc3c(cc2F)c(=O)c(C(=O)O)cn3C2CC2)CC1 | – | – | – | – | – | – | – | – | – | – | – | – | – | – | – | – | – | – | MIC [19]: 64 µM (≈ 59.7 µg/mL); MIC [20]: 1 µM (≈ 0.933 µg/mL); MIC [21]: > 128 µM; MIC [22]: ≥ 128 µM; MIC [23]: > 128 µM; MIC [24]: 64 µM (≈ 59.7 µg/mL); MIC [25]: > 128 µM |
| CC1(C)S[C@@H]2[C@H](NC(=O)[C@H](NC(=O)CCC(=O)NC(CCCNC(=O)c3cccc(O)c3O)(CCCNC(=O)c3cccc(O)c3O)CCCNC(=O)c3cccc(O)c3O)c3ccc(O)cc3)C(=O)N2[C@H]1C(=O)O | 25 (≈ 26.5 µg/mL) | 0.05 (≈ 0.0529 µg/mL) | 12.5 to 25 (≈ 13.2 to 26.5 µg/mL) | 0.05 to 0.083 (≈ 0.0529 to 0.0878 µg/mL) | 12.5 (≈ 13.2 µg/mL) | 0.083 (≈ 0.0878 µg/mL) | 50 (≈ 52.9 µg/mL) | 0.39 (≈ 0.413 µg/mL) | 25 (≈ 26.5 µg/mL) | 0.21 (≈ 0.222 µg/mL) | > 200 | > 200 | 100 (≈ 106 µg/mL) | 6.25 (≈ 6.61 µg/mL) | > 200 | > 200 | > 100 | > 100 | – |
| CCCCCCCCCCCCCCCCC(=O)N(O)CCCC[C@H](NC(=O)[C@@H]1COC(c2ccccc2O)=N1)C(=O)NC[C@H](NC(=O)CCCO[C@H]1O[C@@H]2O[C@@]3(C)CC[C@H]4[C@H](C)CC[C@@H]([C@H]1C)[C@@]24OO3)C(=O)N[C@H]1CCCCN(O)C1=O | – | – | – | – | – | – | – | – | – | – | – | – | – | – | – | – | – | – | MIC [26]: 0.39 µg/mL (≈ 0.334 µM); MIC [27]: > 5 µg/mL |
| CC1(C)S[C@@H]2[C@H](NC(=O)[C@H](N)c3ccc(O)cc3)C(=O)N2[C@H]1C(=O)O [AMOXICILLIN] | > 200 | > 200 | 0.46 to 200 (≈ 0.168 to 73.1 µg/mL) | 0.39 to 200 (≈ 0.143 to 73.1 µg/mL) | 0.46 (≈ 0.168 µg/mL) | 0.39 (≈ 0.143 µg/mL) | > 200 | > 100 | > 200 | > 100 | > 200 | > 200 | 4.17 (≈ 1.52 µg/mL) | 4.17 (≈ 1.52 µg/mL) | 100 (≈ 36.5 µg/mL) | 100 (≈ 36.5 µg/mL) | > 100 | > 100 | – |
| CC1(C)S[C@@H]2[C@H](NC(=O)[C@H](N)c3ccccc3)C(=O)N2[C@H]1C(=O)O [AMPICILLIN] | > 200 | > 200 | 0.52 to 200 (≈ 0.182 to 69.9 µg/mL) | 0.78 to 200 (≈ 0.273 to 69.9 µg/mL) | 0.52 (≈ 0.182 µg/mL) | 0.78 (≈ 0.273 µg/mL) | > 200 | > 100 | > 200 | > 100 | > 200 | > 200 | 16.7 (≈ 5.84 µg/mL) | 12.5 (≈ 4.37 µg/mL) | > 200 | > 200 | > 100 | > 100 | – |
| N[C@@H](C(=O)N[C@@H]1C(=O)N2C(C(=O)O)=C(Cl)CC[C@H]12)c1ccccc1 [LORACARBEF ANHYDROUS] | – | – | – | – | – | – | – | – | – | – | – | – | – | – | – | – | – | – | MIC [19]: 32 µM (≈ 11.2 µg/mL); MIC [20]: 1 µM (≈ 0.35 µg/mL); MIC [21]: 128 µM (≈ 44.8 µg/mL); MIC [22]: > 128 µM; MIC [23]: > 128 µM; MIC [24]: > 128 µM; MIC [25]: 2 µM (≈ 0.7 µg/mL) |
| CN[C@H](CC(C)C)C(=O)N[C@H]1C(=O)N[C@@H](CC(N)=O)C(=O)N[C@H]2C(=O)N[C@H]3C(=O)N[C@H](C(=O)N[C@H](C(=O)O)c4cc(O)cc(O)c4-c4cc3ccc4O)[C@H](O)c3ccc(c(Cl)c3)Oc3cc2cc(c3O[C@@H]2O[C@H](CO)[C@@H](O)[C@H](O)[C@H]2O[C@H]2C[C@](C)(N)[C@H](O)[C@H](C)O2)Oc2ccc(cc2Cl)[C@H]1O [VANCOMYCIN] | – | – | – | – | – | – | – | – | – | – | – | – | – | – | – | – | – | – | MIC [28]: 32 to 64 µM (≈ 46.4 to 92.8 µg/mL); MIC [29]: 32 µM (≈ 46.4 µg/mL); MIC [30]: > 128 µM; MIC [31]: > 128 µM; MIC [32]: > 128 µM; MIC [33]: > 128 µM; MIC [34]: > 128 µM; MIC [35]: > 128 µM; MIC [36]: 1 to 4 µM (≈ 1.45 to 5.8 µg/mL); MIC [37]: 0.5 to 4 µM (≈ 0.725 to 5.8 µg/mL); MIC [38]: 2 to 4 µM (≈ 2.9 to 5.8 µg/mL); MIC [39]: 1 to 4 µM (≈ 1.45 to 5.8 µg/mL) |
